# Entries after “also recorded” stand apart in the source; their conditions may differ. Where two headings read alike, the source gives them in different places.
# Tests used:
# AChE [1] = molecular target: T1, AChE (Homo sapiens, UniProt P22303); assay: In vitro AChE inhibition assay (improved Ellman spectrophotometric method); format: biochemical
# T1 construct: purchased Bioassays System (BioAssay Systems) IACE-100
# Description: (§1) For AChE and BuChE inhibition experiments, Ellman et al. method’s was applied with a few minor adjustments. According to the manufacturer’s recommendations, the QuantiChromTM AChE Inhibitor Screening Kit (IACE-100), Bioassays System, and the Cholinesterase (ChE) Activity Assay Kit, LifeSpan BioSciences, Inc., USA, were used to measure the inhibition of AChE and BuChE, respectively. […] The relationship between product colour and enzyme activity after inhibition is established. Substrates included butyrylthiocholine iodide and acetylthiocholine iodide.
# BuChE enzyme = molecular target: T2, BuChE enzyme (Homo sapiens, UniProt P06276); assay: In vitro BuChE inhibition assay (modified Ellman spectrophotometric method); format: biochemical
# T2 construct: purchased LifeSpan BioSciences, Inc., USA
# Description: This was carried out by using the modified Ellman spectrophotometric method.
# as §1
# MMP-2 = molecular target: T3, MMP-2 (Homo sapiens, UniProt P08253); assay: MMP-2 inhibitor screening assay (fluorometric, FRET peptide); format: biochemical
# T3 construct: purchased Abcam ab139447
# T3 sequence (P08253 110-660): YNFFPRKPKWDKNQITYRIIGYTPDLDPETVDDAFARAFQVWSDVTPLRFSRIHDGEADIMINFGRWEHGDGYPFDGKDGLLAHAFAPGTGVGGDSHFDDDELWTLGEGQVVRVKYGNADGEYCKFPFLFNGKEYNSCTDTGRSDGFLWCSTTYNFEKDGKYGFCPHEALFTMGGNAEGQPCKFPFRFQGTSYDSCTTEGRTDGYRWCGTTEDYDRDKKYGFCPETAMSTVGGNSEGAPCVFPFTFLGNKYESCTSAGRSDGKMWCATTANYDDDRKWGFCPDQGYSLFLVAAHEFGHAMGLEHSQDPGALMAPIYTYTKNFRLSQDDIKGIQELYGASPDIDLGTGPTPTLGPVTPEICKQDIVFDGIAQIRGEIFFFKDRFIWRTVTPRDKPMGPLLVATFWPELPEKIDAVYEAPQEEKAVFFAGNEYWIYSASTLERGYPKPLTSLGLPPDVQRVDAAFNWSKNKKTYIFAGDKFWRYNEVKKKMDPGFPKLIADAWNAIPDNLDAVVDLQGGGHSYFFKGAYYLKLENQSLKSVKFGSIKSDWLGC
# Description: Matrix Metalloproteinase-2 (MMP-2) is known for its impact on neurological disorders as AD[44–46].
# This assay kit uses a fluorescence resonance energy transfer (FRET) peptide as a generic MMP activity indicator. In the intact FRET peptide, the fluorescence of one part is quenched by another. After cleavage into two separate fragments by MMPs, the fluorescence is recovered.
# Aβ1–42 = molecular target: T4, Aβ1–42 (Homo sapiens, UniProt P05067); assay: Self-induced Aβ1–42 aggregation inhibition assay (Thioflavin T, fluorometric); format: biochemical; settings: Thioflavin T fluorescence; read-out: Self-induced Aβ1–42 aggregation IC50 (nM) ± SD
# T4 construct: the beta amyloid 1–42 (Aβ42) Ligand Screening Assay Kit (Fluorometric) (K570-100); purchased BioVision K570-100
# AChE [2] = molecular target: T1, AChE; assay: Kinetic study of AChE inhibition (Lineweaver-Burk and Dixon plots); format: biochemical
# Description: Figure 5.
# as §1
# [3] = SH-SY5Y neuroblastoma cell toxicity (MTT assay); settings: human, SH-SY5Y neuroblastoma cells
# Description: (§2) The cell viability was determined through using MTT assay.
# (§3) The American Type Culture Collection provided the cells (Rockville, MD). […] The chemical was applied to the cells at various doses ([…]) for 48 h. The MTT colorimetric assay’s described methodology was then used[57].
# [4] = test system: AChE (IC50 in the denominator); assay: SH-SY5Y neuroblastoma cell toxicity (MTT assay); settings: human, SH-SY5Y neuroblastoma cells
# Description: as §2, §3
# [5] = test system: scopolamine-induced memory impairment in mice; assay: Y-maze test, scopolamine-induced amnesia model; format: in vivo
# Description: In order to test potential anticholinergic medication candidates, the in vivo scopolamine model was employed to cause memory impairment in mice. Scopolamine can inhibit the cholinergic system by antagonising the muscarinic receptor[47].
# Animal working memory is assessed using the hippocampal-dependent Y-maze test. Working memory is measured using the spontaneous alternation score[48].
# In the current investigation, adult Swiss Albino mice (8–10 weeks old, weighing 25–30 g) from the National Research Centre were employed. For 1 week, animals were acclimated in a room with constant illumination, humidity, and temperature (22 °C ± 1 °C, 60%, and 12 h of light/dark cycle). Throughout the experiment, unlimited amounts of food and water were given. Mice were kept in open, opaque propylene cages with good ventilation and wide access to a variety of forages.
# (§4) Healthy mice were randomised into four groups of six mice each after a 1-week adaption period, at random, as follows: Group 1 is the control group, which received saline solution with 10% Tween 80. […] Following the injection of scopolamine, the behavioural study will be examined 30 min later.
# In the Y-maze, a test of working memory, the animals’ capacity for spontaneous alternation was evaluated[49]. Three equally spaced horizontal arms measuring 120°, 45 cm long, and 16 cm high make up the Y-maze. Each mouse was put into one of the three arms of the maze and given free rein to wander from arm to arm. Both the number and order of arm inputs were recorded. The spontaneous alternation is derived from the following equation as a measure of memory performance: (Alternations/Total Arm Entries) − 2 × 100 = percent alternation. The student’s t-test was used to assess the data.
# [6] = test system: scopolamine-induced cognitive impairment; assay: Step-down passive avoidance test, scopolamine-induced amnesia model; format: in vivo; settings: mice; for transfer latency time (TLT), passive avoidance test: 1 mg/kg orally 30 min before scopolamine 3 mg/kg intraperitoneal
# Description: In order to test potential anticholinergic medication candidates, the in vivo scopolamine model was employed to cause memory impairment in mice.
# For 1 week, animals were acclimated in a room with constant illumination, humidity, and temperature (22 °C ± 1 °C, 60%, and 12 h of light/dark cycle). Throughout the experiment, unlimited amounts of food and water were given. Mice were kept in open, opaque propylene cages with good ventilation and wide access to a variety of forages.
# as §4
# The passive avoidance test was conducted in a device that had two independent compartments split by a sliding door. There was a connection between the illuminated chamber and a dark compartment with an electrifiable grid floor, which was free of electric impulses. Each mouse was initially placed in the lit chamber so that it could become accustomed to it. The sliding door is then opened, allowing access to the enclosed, gloomy space. The door was shut once the animal had entered the chamber entirely, and it was then shocked with an electric shock lasting two seconds (24 V, 0.5 mA). The latency time to enter the dark container was measured to gauge working memory (Training trial). Twenty-four hours after the training trial, a test trial was carried out without application of the electric foot shock[50].
# [7] = read-out: AChE IC50 (nM) ± SD, average of triplicate determination, Ellman method, pH 7.5
# T1 sequence (P22303 32-614): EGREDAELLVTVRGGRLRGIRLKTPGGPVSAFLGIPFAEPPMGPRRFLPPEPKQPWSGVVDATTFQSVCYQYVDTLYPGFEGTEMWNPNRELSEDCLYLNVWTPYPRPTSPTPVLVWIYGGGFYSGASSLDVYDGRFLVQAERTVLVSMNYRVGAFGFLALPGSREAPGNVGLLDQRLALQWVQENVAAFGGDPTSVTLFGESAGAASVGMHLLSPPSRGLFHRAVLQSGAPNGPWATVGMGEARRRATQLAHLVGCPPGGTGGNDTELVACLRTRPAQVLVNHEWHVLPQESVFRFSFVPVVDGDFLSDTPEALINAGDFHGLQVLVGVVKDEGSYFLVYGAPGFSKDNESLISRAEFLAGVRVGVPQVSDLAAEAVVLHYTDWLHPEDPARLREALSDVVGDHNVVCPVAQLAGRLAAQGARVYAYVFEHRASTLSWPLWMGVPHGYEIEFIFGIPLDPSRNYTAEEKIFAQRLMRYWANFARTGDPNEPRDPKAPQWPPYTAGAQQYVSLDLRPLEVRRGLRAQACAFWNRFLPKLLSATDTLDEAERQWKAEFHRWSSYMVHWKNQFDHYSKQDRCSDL
# T2 sequence (P06276 29-602): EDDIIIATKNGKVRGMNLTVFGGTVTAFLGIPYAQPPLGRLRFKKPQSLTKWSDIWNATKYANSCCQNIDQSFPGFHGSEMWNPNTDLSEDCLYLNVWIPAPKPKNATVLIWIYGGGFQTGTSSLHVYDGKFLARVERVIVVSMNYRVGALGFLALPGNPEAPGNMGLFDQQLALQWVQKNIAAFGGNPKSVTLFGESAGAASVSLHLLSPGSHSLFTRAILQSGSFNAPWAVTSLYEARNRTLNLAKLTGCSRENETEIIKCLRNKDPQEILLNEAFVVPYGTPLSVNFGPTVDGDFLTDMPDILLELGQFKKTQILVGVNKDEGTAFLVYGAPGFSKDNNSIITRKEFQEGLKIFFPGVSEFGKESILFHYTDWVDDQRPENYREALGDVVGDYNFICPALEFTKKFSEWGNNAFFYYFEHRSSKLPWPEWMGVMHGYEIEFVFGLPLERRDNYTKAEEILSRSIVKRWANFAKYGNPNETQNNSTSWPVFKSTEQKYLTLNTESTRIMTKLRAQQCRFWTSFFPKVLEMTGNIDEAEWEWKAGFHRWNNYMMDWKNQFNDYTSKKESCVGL
# T4 sequence (P05067 672-713 limits assumed): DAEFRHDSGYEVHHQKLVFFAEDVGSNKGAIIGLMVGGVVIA
smiles,measurement,setting,value
"C[Si]1(Cl)C=CC(=Nc2ccccc2)C1=P(c1ccccc1)(c1ccccc1)c1ccccc1 (stereo not shown) [5a, N-(1-chloro-1-methyl-2-(triphenylphosphoranylidene)-1H-silol-3(2H)-ylidene)aniline]",IC50,AChE [1],206 nM
"C[Si]1(Cl)C=CC(=O)C1=P(c1ccccc1)(c1ccccc1)c1ccccc1 (stereo not shown) [5b, 1-Chloro-1-methyl-2-(triphenylphosphoranylidene)-1H-silol-3(2H)-one]",IC50,AChE [1],345 nM
"C=CC(C(=O)OC)=P(c1ccccc1)(c1ccccc1)c1ccccc1 [8b, Methyl 2-(triphenylphosphoranylidene)but-3-enoate]",IC50,AChE [1],158 nM
"C=CC(C(C)=O)=P(c1ccccc1)(c1ccccc1)c1ccccc1 [8c, 3-(Triphenylphosphoranylidene)pent-4-en-2-one]",IC50,AChE [1],97 nM
same,IC50,BuChE enzyme,84.8 ± 2.91 nM
same,Selectivity index,BuChE enzyme; Selectivity index = (BuChE IC50)/(AChE IC50),0.87
same,IC50,MMP-2,724 ± 16.5 nM
same,IC50,Aβ1–42,302 ± 11.4 nM
same,type of AChE inhibition,"AChE [2]; Lineweaver-Burk plot, Vmax and Km patterns",uncompetitively; also recorded: uncompetitive
same,Ki,"AChE [2]; estimate from Dixon plot, read-out: inhibitory constant, Ki",15.7 nM
same,CC50 at 48 h,[3],7310 ± 260 nM
same,selectivity ratio at 48 h,[4],75.3
same,"Y-maze test, percent alternations","[5]; mice, 1 mg/kg orally 30 min before scopolamine 3 mg/kg intraperitoneal",83.9%
same,"transfer latency time (TLT), passive avoidance test",[6],45.2 s
"C=CC(C(=O)c1ccccc1)=P(c1ccccc1)(c1ccccc1)c1ccccc1 [8d, 1-Phenyl-2-(triphenylphosphoranylidene)but-3-en-1-one]",IC50,AChE [1],426 nM
"c1ccc(N=c2c(-c3ccccc3)c(-c3ccccc3)c2=P(c2ccccc2)(c2ccccc2)c2ccccc2)cc1 [11a, N-(2,3-diphenyl-4-(triphenylphosphoranylidene)cyclobut-2-en-1-ylidene)aniline]",IC50,AChE [1],185 nM
"O=c1c(-c2ccccc2)c(-c2ccccc2)c1=P(c1ccccc1)(c1ccccc1)c1ccccc1 [11b, 2,3-Diphenyl-4-(triphenylphosphoranylidene)cyclobut-2-enone]",IC50,AChE [1],508 nM
"CCc1c(CC)c(=P(c2ccccc2)(c2ccccc2)c2ccccc2)c1=O [13b, 2,3-Diethyl-4-(triphenylphosphoranylidene)cyclobut-2-enone]",IC50,AChE [1],249 nM
C[Si]1(Cl)C=C/C(=N\c2ccccc2)C1=P(c1ccccc1)(c1ccccc1)c1ccccc1 (stereo not shown) [C00001],IC50,AChE [1],206 ± 7.33 nM
c1ccc(/N=c2/c(-c3ccccc3)c(-c3ccccc3)c2=P(c2ccccc2)(c2ccccc2)c2ccccc2)cc1 [C00002],IC50,AChE [1],185 ± 9.22 nM
CCc1c(CC)/c(=N/c2ccccc2)c1=P(c1ccccc1)(c1ccccc1)c1ccccc1 [C00006],IC50,AChE [1],507 ± 22.1 nM
CCc1c(CC)c(=P(c2ccccc2)(c2ccccc2)c2ccccc2)c1=O [C00008],IC50,AChE [1]; [7],249 ± 10.4 nM
C[Si](C)(C)c1c([Si](C)(C)C)c(=P(c2ccccc2)(c2ccccc2)c2ccccc2)c1=O [C00010],IC50,AChE [1]; [7],113 ± 4.82 nM
COc1cc2c(cc1OC)C(=O)C(CC1CCN(Cc3ccccc3)CC1)C2 (stereo not shown) [Donepezil],"Y-maze test, percent alternations",[5]; 1 mg/kg,80.7%
same,"transfer latency time (TLT), passive avoidance test",[6],44.0 s
CN1[C@@H]2C[C@@H](OC(=O)[C@H](CO)c3ccccc3)C[C@H]1[C@@H]1O[C@@H]12 [Scopolamine],"Y-maze test, percent alternations, scopolamine model group","[5]; mice, scopolamine 3 mg/kg intraperitoneal alone, control group 82.1",51.2%
same,"transfer latency time (TLT), passive avoidance test, scopolamine-treated group",[6]; scopolamine 3 mg/kg intraperitoneal alone,27.2 s
"C[Si](C)(C)c1c([Si](C)(C)C)c(=P(c2ccccc2)(c2ccccc2)c2ccccc2)c1=O [compound 15, 2,3-Bis(trimethylsilyl)-4-(triphenylphosphoranylidene)cyclobut-2-enone]",IC50,AChE [1],113 nM
